Test results published in ChEMBL document CHEMBL4507263, “Data for DCP probe BAY-474” (2021).

Key:
[1] = biological target: Rho-associated protein kinase 2 (Homo sapiens) (UniProt O75116); test: ROCK-II (h) Millipore kinase activity assay; conditions: Compound concentration 1.0 uM
[2] = biological target: Cannabinoid receptor 1 (Homo sapiens) (UniProt P21554); conditions: Compound concentration 10.0 uM
[3] = biological target: Mitogen-activated protein kinase 11 (Homo sapiens) (UniProt Q15759); test: SAPK2b (h) Millipore kinase activity assay; conditions: Compound concentration 1.0 uM
[4] = biological target: Homeodomain-interacting protein kinase 3 (Homo sapiens) (UniProt Q9H422); test: HIPK3 (h) Millipore kinase activity assay; conditions: Compound concentration 1.0 uM
[5] = biological target: Serine/threonine-protein kinase SIK1 (Homo sapiens) (UniProt P57059); test: SIK (h) Millipore kinase activity assay; conditions: Compound concentration 1.0 uM
[6] = biological target: Tyrosine-protein kinase ABL1 (Homo sapiens) (UniProt P00519); test: Abl (h) Millipore kinase activity assay; conditions: Compound concentration 1.0 uM
[7] = biological target: Serine/threonine-protein kinase BRSK1 (Homo sapiens) (UniProt Q8TDC3); test: BrSK1 (h) Millipore kinase activity assay; conditions: Compound concentration 1.0 uM
[8] = biological target: Homeodomain-interacting protein kinase 1 (Homo sapiens) (UniProt Q86Z02); test: HIPK1 (h) Millipore kinase activity assay; conditions: Compound concentration 1.0 uM
[9] = biological target: Fibroblast growth factor receptor 1 (Homo sapiens) (UniProt P11362); test: FGFR1 (h) Millipore kinase activity assay; conditions: Compound concentration 1.0 uM
[10] = biological target: Serine/threonine-protein kinase Nek3 (Homo sapiens) (UniProt P51956); test: NEK3 (h) Millipore kinase activity assay; conditions: Compound concentration 1.0 uM
[11] = biological target: Maternal embryonic leucine zipper kinase (Homo sapiens) (UniProt Q14680); test: MELK (h) Millipore kinase activity assay; conditions: Compound concentration 1.0 uM
[12] = biological target: Ribosomal protein S6 kinase alpha-2 (Homo sapiens) (UniProt Q15349); test: Rsk3 (h) Millipore kinase activity assay; conditions: Compound concentration 1.0 uM
[13] = biological target: Melatonin receptor type 1A (Homo sapiens) (UniProt P48039); test: Inhibition of Melatonin MT1 at 10 µM in the Eurofins-Panlabs radioligand binding assay (Eurofins_assay_251600); set-up: ligand concentration 0.05 nM; conditions: Compound concentration 10.0 uM
[14] = biological target: Protein kinase C eta type (Homo sapiens) (UniProt P24723); test: PKCeta (h) Millipore kinase activity assay; conditions: Compound concentration 1.0 uM
[15] = biological target: Activin receptor type-2A (Homo sapiens) (UniProt P27037); conditions: Compound concentration 1000.0 nM
[16] = biological target: Death-associated protein kinase 2 (Homo sapiens) (UniProt Q9UIK4); conditions: Compound concentration 1000.0 nM
[17] = biological target: Dual specificity protein kinase CLK2 (Homo sapiens) (UniProt P49760); conditions: Compound concentration 1000.0 nM
[18] = biological target: Serine/threonine-protein kinase Nek11 (Homo sapiens) (UniProt Q8NG66); conditions: Compound concentration 1000.0 nM
[19] = biological target: Phosphatidylinositol 5-phosphate 4-kinase type-2 gamma (Homo sapiens) (UniProt Q8TBX8); conditions: Compound concentration 1000.0 nM
[20] = biological target: Serine/threonine-protein kinase Nek4 (Homo sapiens) (UniProt P51957); conditions: Compound concentration 1000.0 nM
[21] = biological target: Mitogen-activated protein kinase kinase kinase 14 (Homo sapiens) (UniProt Q99558); conditions: Compound concentration 1000.0 nM
[22] = biological target: Interleukin-1 receptor-associated kinase 3 (Homo sapiens) (UniProt Q9Y616); conditions: Compound concentration 1000.0 nM
[23] = biological target: Ephrin type-B receptor 6 (Homo sapiens) (UniProt O15197); conditions: Compound concentration 1000.0 nM
[24] = tested on: Receptor-type tyrosine-protein kinase FLT3 (Homo sapiens), P36888 [D835V]; conditions: Compound concentration 1000.0 nM
[25] = biological target: Receptor-interacting serine/threonine-protein kinase 1 (Homo sapiens) (UniProt Q13546); conditions: Compound concentration 1000.0 nM
[26] = biological target: Homeodomain-interacting protein kinase 1 (Homo sapiens) (UniProt Q86Z02); conditions: Compound concentration 1000.0 nM
[27] = biological target: Tyrosine-protein kinase ZAP-70 (Homo sapiens) (UniProt P43403); conditions: Compound concentration 1000.0 nM
[28] = biological target: NT-3 growth factor receptor (Homo sapiens) (UniProt Q16288); conditions: Compound concentration 1000.0 nM
[29] = biological target: Serine/threonine-protein kinase TAO1 (Homo sapiens) (UniProt Q7L7X3); conditions: Compound concentration 1000.0 nM
[30] = biological target: Phosphatidylinositol 4-phosphate 5-kinase type-1 gamma (Homo sapiens) (UniProt O60331); conditions: Compound concentration 1000.0 nM
[31] = biological target: MAP kinase-activated protein kinase 5 (Homo sapiens) (UniProt Q8IW41); conditions: Compound concentration 1000.0 nM
[32] = biological target: Activin receptor type-1B (Homo sapiens) (UniProt P36896); conditions: Compound concentration 1000.0 nM
[33] = biological target: Serine/threonine-protein kinase PAK 4 (Homo sapiens) (UniProt O96013); conditions: Compound concentration 1000.0 nM
[34] = biological target: Serine/threonine-protein kinase 25 (Homo sapiens) (UniProt O00506); conditions: Compound concentration 1000.0 nM
[35] = biological target: Hormonally up-regulated neu tumor-associated kinase (Homo sapiens) (UniProt P57058); conditions: Compound concentration 1000.0 nM
[36] = biological target: Dual specificity mitogen-activated protein kinase kinase 1 (Homo sapiens) (UniProt Q02750); conditions: Compound concentration 1000.0 nM
[37] = biological target: Angiopoietin-1 receptor (Homo sapiens) (UniProt Q02763); conditions: Compound concentration 1000.0 nM
[38] = biological target: Cyclin-G-associated kinase (Homo sapiens) (UniProt O14976); conditions: Compound concentration 1000.0 nM
[39] = biological target: Ephrin type-A receptor 2 (Homo sapiens) (UniProt P29317); conditions: Compound concentration 1000.0 nM
[40] = biological target: Serine/threonine-protein kinase 33 (Homo sapiens) (UniProt Q9BYT3); conditions: Compound concentration 1000.0 nM
[41] = biological target: Serine/threonine-protein kinase NLK (Homo sapiens) (UniProt Q9UBE8); conditions: Compound concentration 1000.0 nM
[42] = biological target: Phosphatidylinositol 4-phosphate 5-kinase type-1 alpha (Homo sapiens) (UniProt Q99755); conditions: Compound concentration 1000.0 nM
[43] = biological target: Cyclin-dependent kinase 7 (Homo sapiens) (UniProt P50613); conditions: Compound concentration 1000.0 nM
[44] = biological target: BMP-2-inducible protein kinase (Homo sapiens) (UniProt Q9NSY1); conditions: Compound concentration 1000.0 nM
[45] = biological target: Serine/threonine-protein kinase haspin (Homo sapiens) (UniProt Q8TF76); conditions: Compound concentration 1000.0 nM
[46] = tested on: Epidermal growth factor receptor (Homo sapiens), P00533 [UNDEFINED MUTATION]; conditions: Compound concentration 1000.0 nM

Homeodomain-interacting protein kinase 1 (Homo sapiens), sequence (Q86Z02 whole entry, looked up): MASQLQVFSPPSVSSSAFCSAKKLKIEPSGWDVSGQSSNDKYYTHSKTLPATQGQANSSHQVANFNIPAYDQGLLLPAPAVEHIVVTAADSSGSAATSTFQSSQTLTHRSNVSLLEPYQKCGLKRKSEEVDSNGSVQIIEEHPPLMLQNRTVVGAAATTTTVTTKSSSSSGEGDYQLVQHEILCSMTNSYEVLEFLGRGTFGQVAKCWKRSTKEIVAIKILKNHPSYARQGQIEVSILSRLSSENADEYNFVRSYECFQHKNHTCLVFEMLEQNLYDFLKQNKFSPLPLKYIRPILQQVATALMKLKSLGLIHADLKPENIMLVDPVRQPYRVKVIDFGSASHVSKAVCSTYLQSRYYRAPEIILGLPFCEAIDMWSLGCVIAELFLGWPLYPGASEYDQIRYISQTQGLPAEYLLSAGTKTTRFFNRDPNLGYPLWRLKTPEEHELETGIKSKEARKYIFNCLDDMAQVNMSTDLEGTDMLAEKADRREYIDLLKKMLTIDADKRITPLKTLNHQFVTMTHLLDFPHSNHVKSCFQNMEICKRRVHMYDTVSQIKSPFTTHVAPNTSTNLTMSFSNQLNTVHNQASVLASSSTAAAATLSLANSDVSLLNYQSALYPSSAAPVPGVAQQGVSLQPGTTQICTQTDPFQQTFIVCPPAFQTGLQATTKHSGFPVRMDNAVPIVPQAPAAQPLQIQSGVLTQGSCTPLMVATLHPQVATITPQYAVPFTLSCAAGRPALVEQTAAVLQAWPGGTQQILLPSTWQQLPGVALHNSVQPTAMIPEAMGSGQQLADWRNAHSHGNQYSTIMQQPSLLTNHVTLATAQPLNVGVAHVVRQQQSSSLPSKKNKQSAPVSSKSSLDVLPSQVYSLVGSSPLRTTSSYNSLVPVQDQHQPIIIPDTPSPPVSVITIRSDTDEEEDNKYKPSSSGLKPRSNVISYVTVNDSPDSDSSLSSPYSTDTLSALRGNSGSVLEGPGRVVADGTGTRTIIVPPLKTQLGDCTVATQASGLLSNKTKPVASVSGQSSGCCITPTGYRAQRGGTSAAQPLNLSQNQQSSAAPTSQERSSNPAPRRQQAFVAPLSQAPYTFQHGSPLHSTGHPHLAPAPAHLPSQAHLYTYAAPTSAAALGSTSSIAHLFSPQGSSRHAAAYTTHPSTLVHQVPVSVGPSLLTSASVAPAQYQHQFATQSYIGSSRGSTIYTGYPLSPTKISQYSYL
Hormonally up-regulated neu tumor-associated kinase (Homo sapiens), sequence (P57058 whole entry): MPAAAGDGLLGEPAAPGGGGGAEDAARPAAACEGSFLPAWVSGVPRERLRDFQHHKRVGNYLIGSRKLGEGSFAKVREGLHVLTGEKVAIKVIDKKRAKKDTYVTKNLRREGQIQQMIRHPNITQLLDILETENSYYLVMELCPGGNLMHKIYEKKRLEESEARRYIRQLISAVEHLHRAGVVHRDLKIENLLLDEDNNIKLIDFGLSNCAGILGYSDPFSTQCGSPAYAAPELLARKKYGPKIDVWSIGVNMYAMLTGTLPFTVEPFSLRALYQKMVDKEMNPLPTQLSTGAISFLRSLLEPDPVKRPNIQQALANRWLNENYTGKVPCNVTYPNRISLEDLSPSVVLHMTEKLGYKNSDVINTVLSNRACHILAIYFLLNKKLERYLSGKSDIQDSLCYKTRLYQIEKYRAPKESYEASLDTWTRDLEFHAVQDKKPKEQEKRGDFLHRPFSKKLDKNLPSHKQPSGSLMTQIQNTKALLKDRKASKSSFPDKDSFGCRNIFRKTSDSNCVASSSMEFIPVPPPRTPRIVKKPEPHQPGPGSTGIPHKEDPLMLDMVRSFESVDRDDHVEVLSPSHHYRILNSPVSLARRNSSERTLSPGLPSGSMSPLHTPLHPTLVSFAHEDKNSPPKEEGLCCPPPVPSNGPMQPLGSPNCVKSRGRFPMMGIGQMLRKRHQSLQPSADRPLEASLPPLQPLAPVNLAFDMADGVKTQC
Protein kinase C eta type (Homo sapiens), sequence (P24723 whole entry): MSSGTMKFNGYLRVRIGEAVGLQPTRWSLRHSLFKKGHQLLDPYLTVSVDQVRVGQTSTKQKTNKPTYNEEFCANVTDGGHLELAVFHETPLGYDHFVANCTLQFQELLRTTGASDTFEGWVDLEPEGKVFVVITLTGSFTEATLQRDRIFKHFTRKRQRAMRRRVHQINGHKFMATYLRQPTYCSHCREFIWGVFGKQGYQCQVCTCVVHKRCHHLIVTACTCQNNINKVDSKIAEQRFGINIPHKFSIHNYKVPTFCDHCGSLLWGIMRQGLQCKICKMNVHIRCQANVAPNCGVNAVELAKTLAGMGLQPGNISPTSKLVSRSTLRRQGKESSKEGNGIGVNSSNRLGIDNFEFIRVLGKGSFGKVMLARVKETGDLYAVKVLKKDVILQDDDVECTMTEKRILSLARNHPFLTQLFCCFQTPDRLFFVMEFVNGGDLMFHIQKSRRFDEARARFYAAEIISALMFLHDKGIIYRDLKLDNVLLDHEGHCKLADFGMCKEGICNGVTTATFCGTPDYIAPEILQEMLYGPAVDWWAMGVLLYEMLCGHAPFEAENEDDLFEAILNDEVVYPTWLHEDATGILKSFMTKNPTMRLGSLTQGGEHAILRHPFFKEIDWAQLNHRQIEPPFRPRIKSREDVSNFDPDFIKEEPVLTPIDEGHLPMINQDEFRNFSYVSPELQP
Serine/threonine-protein kinase SIK1 (Homo sapiens), sequence (P57059 whole entry): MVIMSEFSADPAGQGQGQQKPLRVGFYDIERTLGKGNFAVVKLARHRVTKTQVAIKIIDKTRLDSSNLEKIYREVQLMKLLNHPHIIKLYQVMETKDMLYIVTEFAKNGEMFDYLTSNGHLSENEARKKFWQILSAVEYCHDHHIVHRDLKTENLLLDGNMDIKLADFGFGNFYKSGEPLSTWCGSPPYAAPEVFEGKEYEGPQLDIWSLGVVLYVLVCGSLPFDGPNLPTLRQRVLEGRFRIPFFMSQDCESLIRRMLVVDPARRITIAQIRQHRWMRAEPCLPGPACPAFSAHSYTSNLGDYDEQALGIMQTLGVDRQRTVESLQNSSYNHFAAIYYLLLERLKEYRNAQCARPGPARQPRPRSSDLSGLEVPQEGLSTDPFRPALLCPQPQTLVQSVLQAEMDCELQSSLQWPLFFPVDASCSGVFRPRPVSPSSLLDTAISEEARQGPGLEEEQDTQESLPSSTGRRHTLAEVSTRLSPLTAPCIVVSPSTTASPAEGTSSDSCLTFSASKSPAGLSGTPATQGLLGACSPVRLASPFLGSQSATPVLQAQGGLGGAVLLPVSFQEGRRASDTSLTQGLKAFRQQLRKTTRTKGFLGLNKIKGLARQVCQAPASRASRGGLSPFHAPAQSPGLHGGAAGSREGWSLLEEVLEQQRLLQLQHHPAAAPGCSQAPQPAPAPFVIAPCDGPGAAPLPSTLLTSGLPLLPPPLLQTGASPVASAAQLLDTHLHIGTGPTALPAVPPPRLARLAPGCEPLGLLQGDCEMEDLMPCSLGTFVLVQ
Cannabinoid receptor 1 (Homo sapiens), sequence (P21554 whole entry): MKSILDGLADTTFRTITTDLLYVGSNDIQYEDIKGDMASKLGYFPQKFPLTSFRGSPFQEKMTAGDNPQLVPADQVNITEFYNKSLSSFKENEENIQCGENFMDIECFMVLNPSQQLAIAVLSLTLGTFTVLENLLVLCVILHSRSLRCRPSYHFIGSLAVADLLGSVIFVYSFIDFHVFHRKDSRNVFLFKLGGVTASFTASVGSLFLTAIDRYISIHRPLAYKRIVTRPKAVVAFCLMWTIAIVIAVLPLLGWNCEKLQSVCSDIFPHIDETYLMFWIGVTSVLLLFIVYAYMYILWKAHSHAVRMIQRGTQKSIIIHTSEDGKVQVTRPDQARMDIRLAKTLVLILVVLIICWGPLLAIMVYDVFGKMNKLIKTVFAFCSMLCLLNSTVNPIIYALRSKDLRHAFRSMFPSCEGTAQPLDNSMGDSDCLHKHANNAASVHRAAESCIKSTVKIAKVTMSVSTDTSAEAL
Activin receptor type-1B (Homo sapiens), sequence (P36896 whole entry): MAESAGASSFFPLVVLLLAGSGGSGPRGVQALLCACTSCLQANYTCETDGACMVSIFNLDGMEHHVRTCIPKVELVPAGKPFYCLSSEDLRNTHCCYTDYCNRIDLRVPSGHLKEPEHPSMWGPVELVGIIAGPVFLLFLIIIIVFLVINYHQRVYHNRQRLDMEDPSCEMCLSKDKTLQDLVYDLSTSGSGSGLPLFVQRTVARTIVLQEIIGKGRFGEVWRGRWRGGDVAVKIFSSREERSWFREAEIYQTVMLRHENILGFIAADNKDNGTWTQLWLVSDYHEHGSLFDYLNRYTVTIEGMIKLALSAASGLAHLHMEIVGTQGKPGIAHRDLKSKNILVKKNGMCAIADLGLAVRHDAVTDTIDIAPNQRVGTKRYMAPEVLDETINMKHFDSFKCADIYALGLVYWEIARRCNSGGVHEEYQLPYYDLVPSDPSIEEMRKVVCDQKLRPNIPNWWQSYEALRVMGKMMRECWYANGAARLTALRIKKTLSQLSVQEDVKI
Activin receptor type-2A (Homo sapiens), sequence (P27037 whole entry): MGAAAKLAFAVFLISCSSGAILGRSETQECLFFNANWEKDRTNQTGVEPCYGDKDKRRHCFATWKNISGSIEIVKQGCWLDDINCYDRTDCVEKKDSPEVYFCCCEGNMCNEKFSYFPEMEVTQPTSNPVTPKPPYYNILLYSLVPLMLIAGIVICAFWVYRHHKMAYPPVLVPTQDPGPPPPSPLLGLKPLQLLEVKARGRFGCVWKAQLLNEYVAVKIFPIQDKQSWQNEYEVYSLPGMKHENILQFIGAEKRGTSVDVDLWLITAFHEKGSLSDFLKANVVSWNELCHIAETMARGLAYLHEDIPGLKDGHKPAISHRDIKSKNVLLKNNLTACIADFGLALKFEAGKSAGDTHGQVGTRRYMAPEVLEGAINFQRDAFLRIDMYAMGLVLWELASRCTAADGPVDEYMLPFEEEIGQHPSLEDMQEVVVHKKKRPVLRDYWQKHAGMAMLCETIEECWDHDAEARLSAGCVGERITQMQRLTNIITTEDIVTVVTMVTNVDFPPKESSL

CC1=C(C#N)C(c2ccc3[nH]nc(C)c3c2)C(C#N)=C(C)N1 [BAY-474]
inactive: inhibition [1] -3% | inhibition [2] 17% | inhibition [3] -10% | inhibition [4] -4% | inhibition [5] -7% | inhibition [6] -2% | inhibition [7] 9% | inhibition [8] -5% | inhibition [9] 23% | inhibition [10] -9% | inhibition [11] 26% | inhibition [12] 51% | inhibition [13] 2% | inhibition [14] -3%

CC1=C(C#N)[C@@H](c2ccc3[nH]nc(C)c3c2)C(C#N)=C(c2ccc(Cl)cc2)N1 [BAY-827]
inactive: residual activity [15] 100% | residual activity [16] 100% | residual activity [17] 100% | residual activity [18] 62.4% | residual activity [19] 100% | residual activity [20] 90.1% | residual activity [21] 100% | residual activity [22] 96.4% | residual activity [23] 100% | residual activity [24] 89.7% | residual activity [25] 94.6% | residual activity [26] 56.7% | residual activity [27] 85.4% | residual activity [28] 100% | residual activity [29] 100% | residual activity [30] 99.5% | residual activity [31] 100% | residual activity [32] 100% | residual activity [33] 100% | residual activity [34] 100% | residual activity [35] 81.4% | residual activity [36] 100% | residual activity [37] 74.5% | residual activity [38] 100% | residual activity [39] 100% | residual activity [40] 90.9% | residual activity [41] 78.9% | residual activity [42] 100% | residual activity [43] 100% | residual activity [44] 100% | residual activity [45] 100% | residual activity [46] 100%
